Calls of active or inactive are those of the source.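 The calls were made as follows: active = dose curve with falling signal and an AC50 no higher than twice the top valid tested dose; inconclusive = flat curve with 30 to 70% inhibition, or a poor fit; inactive = rising signal, flat weak curve, or AC50 over that limit.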
Molecular target: Melanocortin receptor 4 (Homo sapiens) (UniProt P32245)
Test: inhibition of alpha-MSH-driven MC4R cAMP reporter – cell-based, HEK293, luminescence, dry powder, counter-screen for LGR2 antagonist project, dose response (AID 743505)
Conditions: HEK293 MC4R CRE-luciferase, antagonist mode; for activity change, negative = inhibition: at 35 µM (top of the series)

Melanocortin receptor 4 (Homo sapiens), sequence (P32245 whole entry, looked up): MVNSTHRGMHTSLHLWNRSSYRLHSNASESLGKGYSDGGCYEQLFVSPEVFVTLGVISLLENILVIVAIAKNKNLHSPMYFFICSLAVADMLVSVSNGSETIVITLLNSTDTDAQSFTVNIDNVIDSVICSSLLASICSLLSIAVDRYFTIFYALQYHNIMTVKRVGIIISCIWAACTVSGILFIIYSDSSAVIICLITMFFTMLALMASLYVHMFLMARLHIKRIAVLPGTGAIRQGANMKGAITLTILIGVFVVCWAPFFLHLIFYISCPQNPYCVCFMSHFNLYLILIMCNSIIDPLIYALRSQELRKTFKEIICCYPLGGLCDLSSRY

| SMILES | activity change, negative = inhibition | AC50 |
| --- | --- | --- |
| C[C@H](CO)N1C[C@H](C)[C@H](CN(C)C(=O)Nc2ccccc2)OCCCC[C@H](C)Oc2ccc(NC(=O)Nc3ccc4c(c3)OCO4)cc2C1=O | inactive | – |
| C[C@@H]1CCCCO[C@@H](CN(C)C(=O)Nc2cccc3ccccc23)[C@H](C)CN([C@@H](C)CO)C(=O)c2cc(NC(=O)C3CCCCC3)ccc2O1 | – | > 70 µM (inactive) |
| C[C@H]1CCCCO[C@@H](CN(C)C(=O)Nc2ccc(F)cc2)[C@@H](C)CN([C@@H](C)CO)C(=O)c2cc(NC(=O)C3CCCCC3)ccc2O1 | inactive | – |
| COc1ccc(NC(=O)N(C)C[C@@H]2OCCCC[C@H](C)Oc3ccc(NC(=O)C4CCCCC4)cc3C(=O)N([C@H](C)CO)C[C@@H]2C)cc1 | inactive | – |
| COc1ccc(NC(=O)N(C)C[C@@H]2OCCCC[C@H](C)Oc3ccc(NC(=O)NC4CCCCC4)cc3C(=O)N([C@H](C)CO)C[C@@H]2C)cc1 | inactive | – |
| C[C@H](CO)N1C[C@H](C)[C@H](CN(C)C(=O)Nc2ccc(F)cc2)OCCCC[C@H](C)Oc2ccc(NC(=O)C3CCOCC3)cc2C1=O | inactive | – |
| CC(=O)Nc1ccc2c(c1)C(=O)N([C@H](C)CO)C[C@H](C)[C@H](CN(C)C(=O)Nc1ccc(F)cc1)OCCCC[C@H](C)O2 | inactive | – |
| C[C@H](CO)N1C[C@H](C)[C@H](CN(C)C(=O)Nc2ccc(F)cc2)OCCCC[C@H](C)Oc2ccc(NC(=O)Nc3ccccc3)cc2C1=O | inactive | – |
| COc1ccc(S(=O)(=O)N(C)C[C@@H]2OCCCC[C@H](C)Oc3ccc(NS(=O)(=O)c4ccc(F)cc4)cc3C(=O)N([C@@H](C)CO)C[C@@H]2C)cc1 | inactive | – |
| C[C@H](CO)N1C[C@H](C)[C@H](CN(C)C(=O)Nc2ccc3c(c2)OCO3)OCCCC[C@H](C)Oc2ccc(NC(=O)C3CCCCC3)cc2C1=O | inactive | – |
| C[C@@H]1CCCCO[C@H](CN(C)C(=O)Nc2cccc3ccccc23)[C@H](C)CN([C@@H](C)CO)C(=O)c2cc(NC(=O)C3CCCCC3)ccc2O1 | inactive | – |
| C[C@H]1CCCCO[C@@H](CN(C)C(=O)Nc2cccc3ccccc23)[C@@H](C)CN([C@@H](C)CO)C(=O)c2cc(NC(=O)C3CCCCC3)ccc2O1 | inactive | – |
| C[C@H](CO)N1C[C@H](C)[C@H](CN(C)C(=O)Nc2ccccc2)OCCCC[C@H](C)Oc2ccc(NC(=O)Nc3ccccc3)cc2C1=O | inactive | – |
| C[C@H](CO)N1C[C@H](C)[C@H](CN(C)C(=O)Nc2ccccc2F)OCCCC[C@H](C)Oc2ccc(NC(=O)C3CCCCC3)cc2C1=O | inactive | – |
| C[C@H](CO)N1C[C@H](C)[C@H](CN(C)C(=O)Nc2cccc3ccccc23)OCCCC[C@H](C)Oc2ccc(NC(=O)C3CCCCC3)cc2C1=O | inactive | – |
| C[C@@H]1CCCCO[C@@H](CN(C)C(=O)Nc2cccc3ccccc23)[C@@H](C)CN([C@H](C)CO)C(=O)c2cc(NC(=O)C3CCCCC3)ccc2O1 | inactive | – |
| C[C@H](CO)N1C[C@H](C)[C@@H](CN(C)C(=O)Nc2cccc3ccccc23)OCCCC[C@H](C)Oc2ccc(NC(=O)C3CCCCC3)cc2C1=O | inactive | – |
| C[C@H](CO)N1C[C@H](C)[C@H](CN(C)C(=O)Nc2ccccc2)OCCCC[C@H](C)Oc2ccc(NC(=O)NC3CCCCC3)cc2C1=O | inactive | – |
| C[C@H](CO)N1C[C@H](C)[C@H](CN(C)C(=O)Nc2ccc(F)cc2)OCCCC[C@H](C)Oc2ccc(NC(=O)C3CCC3)cc2C1=O | inactive | – |
| C[C@H]1CCCCO[C@@H](CN(C)S(=O)(=O)c2ccc(Cl)cc2)[C@@H](C)CN([C@@H](C)CO)C(=O)c2cc(NC(=O)NC3CCCCC3)ccc2O1 | – | > 70 µM (inactive) |
| C[C@H]1CCCCO[C@@H](CN(C)C(=O)Nc2ccc3c(c2)OCO3)[C@@H](C)CN([C@@H](C)CO)C(=O)c2cc(NC(=O)NC3CCCCC3)ccc2O1 | inactive | – |
| C[C@H](CO)N1C[C@H](C)[C@H](CN(C)C(=O)Nc2ccc(Cl)cc2)OCCCC[C@H](C)Oc2ccc(NC(=O)C3CCCCC3)cc2C1=O | inactive | – |
| C[C@H](CO)N1C[C@H](C)[C@H](CN(C)C(=O)Nc2cccc3ccccc23)OCCCC[C@H](C)Oc2ccc(NC(=O)c3ccccc3)cc2C1=O | inactive | – |
| Cc1ccc(NC(=O)N(C)C[C@@H]2OCCCC[C@H](C)Oc3ccc(NC(=O)C4CCCCC4)cc3C(=O)N([C@H](C)CO)C[C@@H]2C)cc1 | inactive | – |
| C[C@H](CO)N1C[C@H](C)[C@H](CN(C)C(=O)Nc2ccc(F)cc2)OCCCC[C@H](C)Oc2ccc(NC(=O)C3CCCCCC3)cc2C1=O | inactive | – |
| C[C@H](CO)N1C[C@H](C)[C@H](CN(C)C(=O)Nc2ccc(F)cc2)OCCCC[C@H](C)Oc2ccc(NC(=O)Nc3ccc(F)cc3)cc2C1=O | inactive | – |

| SMILES | activity change, negative = inhibition | AC50 |
| --- | --- | --- |
| C[C@H](CO)N1C[C@H](C)[C@H](CN(C)C(=O)Nc2ccc(F)cc2)OCCCC[C@H](C)Oc2ccc(NC(=O)C3CCCCC3)cc2C1=O | inactive | – |
| C[C@H](CO)N1C[C@H](C)[C@H](CN(C)C(=O)Nc2ccc3ccccc3c2)OCCCC[C@H](C)Oc2ccc(NC(=O)C3CCCCC3)cc2C1=O | inactive | – |
| C[C@H](CO)N1C[C@H](C)[C@H](CN(C)C(=O)Nc2ccccc2)OCCCC[C@H](C)Oc2ccc(NC(=O)C3CCCCC3)cc2C1=O | inactive | – |
| C[C@@H]1CN([C@@H](C)CO)C(=O)c2cc(NC(=O)C3CCCCC3)ccc2O[C@@H](C)CCCCO[C@@H]1CN(C)C(=O)Nc1cccc2ccccc12 | inactive | – |
| C[C@H]1CCCCO[C@H](CN(C)C(=O)Nc2cccc3ccccc23)[C@@H](C)CN([C@@H](C)CO)C(=O)c2cc(NC(=O)C3CCCCC3)ccc2O1 | inactive | – |
| C[C@H](CO)N1C[C@H](C)[C@H](CN(C)C(=O)Nc2ccc(C(F)(F)F)cc2)OCCCC[C@H](C)Oc2ccc(NC(=O)NC3CCCCC3)cc2C1=O | inactive | – |
| C[C@H]1CCCCO[C@@H](CN(C)C(=O)Nc2ccccc2)[C@@H](C)CN([C@@H](C)CO)C(=O)c2cc(NC(=O)NC3CCCCC3)ccc2O1 | inactive | – |
| C[C@@H]1CN([C@@H](C)CO)C(=O)c2cc(NC(=O)C3CCCCC3)ccc2O[C@@H](C)CCCCO[C@H]1CN(C)C(=O)Nc1cccc2ccccc12 | inactive | – |
| CC(C)(C)c1ccc(-c2nc(-c3ccncc3)no2)cc1 | inactive | – |
| C[C@H](CO)N1C[C@H](C)[C@H](CN(C)C(=O)Nc2ccc(F)cc2)OCCCC[C@H](C)Oc2ccc(NC(=O)C3CC3)cc2C1=O | inactive | – |
| C[C@H](CO)N1C[C@H](C)[C@H](CN(C)C(=O)Nc2ccc(F)cc2)OCCCC[C@H](C)Oc2ccc(NC(=O)C3CCCC3)cc2C1=O | inactive | – |
| C[C@H]1CCCCO[C@@H](CN(C)C(=O)Nc2ccc(C(F)(F)F)cc2)[C@@H](C)CN([C@@H](C)CO)C(=O)c2cc(NC(=O)CCC(F)(F)F)ccc2O1 | inactive | – |
| C[C@H](CO)N1C[C@H](C)[C@H](CN(C)C(=O)Nc2ccccc2)OCCCC[C@H](C)Oc2ccc(NC(=O)CCC(F)(F)F)cc2C1=O | inactive | – |
| C[C@H](CO)N1C[C@H](C)[C@H](CN(C)C(=O)Nc2cccc3ccccc23)OCCCC[C@H](C)Oc2ccc(NC(=O)CCC(F)(F)F)cc2C1=O | inactive | – |
| C[C@@H]1CCCCO[C@H](CN(C)C(=O)Nc2cccc3ccccc23)[C@H](C)CN([C@H](C)CO)C(=O)c2cc(NC(=O)C3CCCCC3)ccc2O1 | inactive | – |
| C[C@@H]1CN([C@H](C)CO)C(=O)c2cc(NC(=O)C3CCCCC3)ccc2O[C@@H](C)CCCCO[C@H]1CN(C)C(=O)Nc1cccc2ccccc12 | inactive | – |
| C[C@@H]1CCCCO[C@H](CN(C)C(=O)Nc2cccc3ccccc23)[C@@H](C)CN([C@H](C)CO)C(=O)c2cc(NC(=O)C3CCCCC3)ccc2O1 | – | > 70 µM (inactive) |
| C[C@H](CO)N1C[C@H](C)[C@H](CN(C)C(=O)Nc2ccc(F)cc2)OCCCC[C@H](C)Oc2ccc(NC(=O)NC3CCCCC3)cc2C1=O | inactive | – |
| C[C@@H]1CN([C@H](C)CO)C(=O)c2cc(NC(=O)C3CCCCC3)ccc2O[C@@H](C)CCCCO[C@@H]1CN(C)C(=O)Nc1cccc2ccccc12 | inactive | – |
| C[C@H](CO)N1C[C@H](C)[C@H](CN(C)C(=O)Nc2ccc(C(F)(F)F)cc2)OCCCC[C@H](C)Oc2ccc(NC(=O)CCC(F)(F)F)cc2C1=O | inactive | – |
| C[C@@H]1CCCCO[C@@H](CN(C)C(=O)Nc2cccc3ccccc23)[C@H](C)CN([C@H](C)CO)C(=O)c2cc(NC(=O)C3CCCCC3)ccc2O1 | – | 7.91 µM |
| C[C@H](CO)N1C[C@H](C)[C@H](CN(C)C(=O)Nc2cccc(F)c2)OCCCC[C@H](C)Oc2ccc(NC(=O)C3CCCCC3)cc2C1=O | inactive | – |
| C[C@@H]1CCCCO[C@H](CN(C)C(=O)Nc2cccc3ccccc23)[C@@H](C)CN([C@@H](C)CO)C(=O)c2cc(NC(=O)C3CCCCC3)ccc2O1 | inactive | – |
| C[C@H](CO)N1C[C@H](C)[C@H](CN(C)C(=O)Nc2ccc3c(c2)OCO3)OCCCC[C@H](C)Oc2ccc(NC(=O)NC3CCCCC3)cc2C1=O | inactive | – |
| C[C@H](CO)N1C[C@H](C)[C@H](CN(C)C(=O)Nc2cccc3ccccc23)OCCCC[C@H](C)Oc2ccc(NC(=O)NC3CCCCC3)cc2C1=O | inactive | – |

Source: PubChem BioAssay AID743505 (Broad Institute, 2014)
